Test results: the NIST ThermoML archive (doi:10.1016/j.jct.2015.02.011)

Assay: xn = mol fraction of the nth substance listed
Conditions: 100.7 kPa, Liquid; for speed of sound: Frequency=3 MHz, Sing-around technique in a fixed-path interferometer; for mass density: Vibrating tube method

CCCCn1cc[n+](C)c1.F[P-](F)(F)(F)(F)F [1-butyl-3-methylimidazolium hexafluorophosphate] + C1CCOC1
Conditions | mass density [kg/m3] | speed of sound [m/s]
293.15 K, x1 = 0.0871 | 995.952 | 1325.2
293.15 K, x1 = 0.1801 | 1081.84 | 1346.3
293.15 K, x1 = 0.2893 | 1156.12 | 1370.2
293.15 K, x1 = 0.3939 | 1209.17 | 1390.1
293.15 K, x1 = 0.4994 | 1250.52 | 1405.6
293.15 K, x1 = 0.5709 | 1274.06 | 1414.3
293.15 K, x1 = 0.7163 | 1313.42 | 1431.1
293.15 K, x1 = 0.8069 | 1333.96 | 1439.1
293.15 K, x1 = 0.9012 | 1352.78 | 1447.9
293.15 K, x1 = 1 | 1370.41 | 1454.6
298.15 K, x1 = 0.0871 | 993.083 | 1305.7
298.15 K, x1 = 0.1801 | 1078.67 | 1329.4
298.15 K, x1 = 0.2893 | 1153.55 | 1354.8
298.15 K, x1 = 0.3939 | 1206.51 | 1375.2
298.15 K, x1 = 0.4994 | 1247.95 | 1391.7
298.15 K, x1 = 0.5709 | 1270.99 | 1400.3
298.15 K, x1 = 0.7163 | 1309.95 | 1419.2
298.15 K, x1 = 0.8069 | 1330.6 | 1428.8
298.15 K, x1 = 0.9012 | 1349.01 | 1436.5
298.15 K, x1 = 1 | 1366.26 | 1442.3
303.15 K, x1 = 0.0871 | 989.595 | 1286.1
303.15 K, x1 = 0.1801 | 1076.18 | 1313.5
303.15 K, x1 = 0.2893 | 1151.06 | 1337.9
303.15 K, x1 = 0.3939 | 1204.02 | 1359.3
303.15 K, x1 = 0.4994 | 1245.06 | 1375.7
303.15 K, x1 = 0.5709 | 1268.4 | 1386.6
303.15 K, x1 = 0.7163 | 1306.96 | 1406.2
303.15 K, x1 = 0.8069 | 1327.01 | 1416.4
303.15 K, x1 = 0.9012 | 1345.27 | 1425.1
303.15 K, x1 = 1 | 1362.13 | 1430.2
308.15 K, x1 = 0.0871 | 986.865 | 1264.2
308.15 K, x1 = 0.1801 | 1073.65 | 1294.6
308.15 K, x1 = 0.2893 | 1148.53 | 1322.9
308.15 K, x1 = 0.3939 | 1201.49 | 1344.4
308.15 K, x1 = 0.4994 | 1242.03 | 1362.9
308.15 K, x1 = 0.5709 | 1265.07 | 1374.2
308.15 K, x1 = 0.7163 | 1303.84 | 1394.4
308.15 K, x1 = 0.8069 | 1323.78 | 1404.5
308.15 K, x1 = 0.9012 | 1341.44 | 1414.8
308.15 K, x1 = 1 | 1357.86 | 1418.4
313.15 K, x1 = 0.0871 | 983.099 | 1243.5
313.15 K, x1 = 0.1801 | 1072.08 | 1276.9
313.15 K, x1 = 0.2893 | 1145.97 | 1306.3
313.15 K, x1 = 0.3939 | 1198.83 | 1329.7
313.15 K, x1 = 0.4994 | 1239.66 | 1347.2
313.15 K, x1 = 0.5709 | 1261.91 | 1358.4
313.15 K, x1 = 0.7163 | 1300.27 | 1380.9
313.15 K, x1 = 0.8069 | 1320.11 | 1392.8
313.15 K, x1 = 0.9012 | 1337.58 | 1398.9
313.15 K, x1 = 1 | 1353.88 | 1406.7
318.15 K, x1 = 0.0871 | 979.072 | 1220.9
318.15 K, x1 = 0.1801 | 1069.07 | 1258.4
318.15 K, x1 = 0.2893 | 1144.86 | 1289.6
318.15 K, x1 = 0.3939 | 1197.02 | 1313.9
318.15 K, x1 = 0.4994 | 1238.26 | 1333
318.15 K, x1 = 0.5709 | 1259.52 | 1344
318.15 K, x1 = 0.7163 | 1297.6 | 1367.3
318.15 K, x1 = 0.8069 | 1316.65 | 1380.3
318.15 K, x1 = 0.9012 | 1333.97 | 1389.5
318.15 K, x1 = 1 | 1349.88 | 1395.2
323.15 K, x1 = 0.0871 | 974.942 | 1200.6
323.15 K, x1 = 0.1801 | 1067.03 | 1239.9
323.15 K, x1 = 0.2893 | 1143.59 | 1272.2
323.15 K, x1 = 0.3939 | 1195.57 | 1295.6
323.15 K, x1 = 0.4994 | 1235.58 | 1319.5
323.15 K, x1 = 0.5709 | 1256.95 | 1330.6
323.15 K, x1 = 0.7163 | 1294.51 | 1355.4
323.15 K, x1 = 0.8069 | 1312.86 | 1368.5
323.15 K, x1 = 0.9012 | 1329.92 | 1378.6
323.15 K, x1 = 1 | 1345.57 | 1384.1
